Here are results for one compound from patent US9050341B2, “Methods of treating drug resistant and other tumors by administering 6,7-dialkoxy quinazoline derivatives” (NATCO PHARMA LIMITED, priority 2009, dated 2015).

Assay in all cases: KinomeScan kinase profiling
Holding throughout (assay type): binding

The target of test [1] is T1, AKT3 (Homo sapiens, UniProt Q9Y243).
T1 construct: host or cells: E. coli host derived from BL21 (T7 phage lysate)
A digest of the protocol: (§1)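 Kinases were expressed as T7 phage fusions in a BL21-derived E. coli host and the cleared lysates were used. Ligand beads were blocked with biotin and buffer (1% BSA, 0.05% Tween 20, 1 mM DTT). Compounds came from 40× DMSO stocks, and phage in the eluates was titred by qPCR.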

The target in test [2] is T2, BTK (Homo sapiens, UniProt Q06187).
T2 construct: purchased Ambit Biosciences Corp (KinomeScan); host or cells: E. coli host derived from the BL21 strain, T7 phage
T2 sequence (Q06187 whole entry): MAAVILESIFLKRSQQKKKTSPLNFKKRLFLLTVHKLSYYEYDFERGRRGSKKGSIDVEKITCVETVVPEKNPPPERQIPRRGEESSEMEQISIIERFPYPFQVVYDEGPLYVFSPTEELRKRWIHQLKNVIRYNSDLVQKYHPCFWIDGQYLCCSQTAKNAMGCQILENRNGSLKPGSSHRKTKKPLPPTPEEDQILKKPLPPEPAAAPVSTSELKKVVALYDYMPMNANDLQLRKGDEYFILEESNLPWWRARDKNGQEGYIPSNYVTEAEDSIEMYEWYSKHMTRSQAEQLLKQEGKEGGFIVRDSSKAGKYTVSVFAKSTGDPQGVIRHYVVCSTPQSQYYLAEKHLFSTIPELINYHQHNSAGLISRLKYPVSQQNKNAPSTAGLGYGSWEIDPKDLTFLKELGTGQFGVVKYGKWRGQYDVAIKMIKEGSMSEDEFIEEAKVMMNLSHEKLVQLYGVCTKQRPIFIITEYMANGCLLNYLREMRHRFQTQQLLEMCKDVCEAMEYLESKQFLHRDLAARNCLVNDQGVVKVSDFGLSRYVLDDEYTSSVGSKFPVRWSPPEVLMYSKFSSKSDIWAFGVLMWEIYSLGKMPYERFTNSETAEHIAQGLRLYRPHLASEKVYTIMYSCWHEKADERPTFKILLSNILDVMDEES
The gist of the method:
as §1

In test [3] the target is T3, CDKL2 (Homo sapiens, UniProt Q92772).
T3 construct: host or cells: T7 phage in E. coli (BL21-derived)
The gist of the method:
as §1

Test [4] has as its target T4, DMPK (Homo sapiens, UniProt Q09013).
T4 construct: purchased Ambit Biosciences Corp (KinomeScan); host or cells: T7 phage in E. coli host derived from BL21
The gist of the method: as §1

Test [5] concerns the target T5, DRAK2 (Homo sapiens, UniProt O94768).
T5 construct: purchased Ambit Biosciences Corp (KinomeScan); host or cells: T7 phage in E. coli host derived from BL21
The gist of the method:
as §1

Test [6] deals with T6, ERK3 (Homo sapiens, UniProt Q16659).
T6 construct: host or cells: E. coli host derived from BL21, T7 phage lysate
The gist of the method: as §1

Test [7] deals with T7, GSK3A (Homo sapiens, UniProt P49840).
T7 construct: host or cells: E. coli host derived from BL21, infected with T7 phage
T7 sequence (P49840 whole entry): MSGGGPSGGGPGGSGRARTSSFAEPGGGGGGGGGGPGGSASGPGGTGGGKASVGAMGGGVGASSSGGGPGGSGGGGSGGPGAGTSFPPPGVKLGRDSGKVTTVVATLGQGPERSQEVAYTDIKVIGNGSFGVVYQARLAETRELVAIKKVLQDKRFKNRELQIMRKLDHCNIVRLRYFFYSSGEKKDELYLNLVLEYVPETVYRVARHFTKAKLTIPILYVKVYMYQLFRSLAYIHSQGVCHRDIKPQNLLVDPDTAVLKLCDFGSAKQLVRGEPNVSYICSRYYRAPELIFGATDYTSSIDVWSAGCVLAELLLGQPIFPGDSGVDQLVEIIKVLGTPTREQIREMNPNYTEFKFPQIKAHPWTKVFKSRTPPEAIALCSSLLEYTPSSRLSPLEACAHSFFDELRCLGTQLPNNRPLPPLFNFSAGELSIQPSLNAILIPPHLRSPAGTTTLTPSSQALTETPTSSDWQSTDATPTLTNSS
The gist of the method:
as §1

Test [8] deals with T8, JNK2 (Homo sapiens, UniProt P45984).
T8 construct: host or cells: T7 phage in E. coli host derived from BL21
A digest of the protocol: as §1

The target of test [9] is T9, KIT (Homo sapiens, UniProt P10721).
T9 construct: host or cells: T7 phage in E. coli host derived from BL21
T9 sequence (P10721 26-976): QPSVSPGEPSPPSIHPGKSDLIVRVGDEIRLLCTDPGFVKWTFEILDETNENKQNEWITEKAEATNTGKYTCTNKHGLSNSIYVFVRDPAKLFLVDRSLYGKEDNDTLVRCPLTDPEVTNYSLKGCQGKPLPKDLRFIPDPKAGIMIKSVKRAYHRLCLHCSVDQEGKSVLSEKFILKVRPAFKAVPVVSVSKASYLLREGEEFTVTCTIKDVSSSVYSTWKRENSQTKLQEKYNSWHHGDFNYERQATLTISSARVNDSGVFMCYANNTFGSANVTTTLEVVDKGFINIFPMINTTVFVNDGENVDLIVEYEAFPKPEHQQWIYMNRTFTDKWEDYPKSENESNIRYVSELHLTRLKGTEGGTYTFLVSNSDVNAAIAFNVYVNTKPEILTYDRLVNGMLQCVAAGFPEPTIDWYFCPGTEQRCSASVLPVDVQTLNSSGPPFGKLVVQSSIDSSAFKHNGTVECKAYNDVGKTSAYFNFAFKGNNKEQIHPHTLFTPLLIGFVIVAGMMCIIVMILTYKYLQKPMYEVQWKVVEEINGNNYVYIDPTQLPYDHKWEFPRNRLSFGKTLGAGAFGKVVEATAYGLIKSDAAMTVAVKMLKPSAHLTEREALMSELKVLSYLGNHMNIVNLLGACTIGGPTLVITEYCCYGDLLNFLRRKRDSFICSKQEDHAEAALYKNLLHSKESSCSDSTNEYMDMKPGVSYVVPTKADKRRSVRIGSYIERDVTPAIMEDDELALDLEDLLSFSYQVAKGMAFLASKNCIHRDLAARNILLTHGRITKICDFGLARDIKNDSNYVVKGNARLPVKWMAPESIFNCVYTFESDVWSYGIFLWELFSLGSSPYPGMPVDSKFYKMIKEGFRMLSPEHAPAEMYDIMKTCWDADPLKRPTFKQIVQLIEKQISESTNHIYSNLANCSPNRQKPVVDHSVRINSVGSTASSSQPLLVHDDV
A digest of the protocol:
as §1

Test [10] deals with T10, KIT (V559D, V654A) (Homo sapiens, UniProt P10721, V559D/V654A).
T10 construct: host or cells: T7 phage in E. coli host derived from BL21
T10 sequence (P10721 26-976 V559D/V654A): as the sequence (P10721 26-976) above, with V534D, V629A counted along it
The gist of the method:
as §1

Test [11] addresses T11, MARK2 (Homo sapiens, UniProt Q7KZI7).
T11 construct: host or cells: E. coli derived from BL21, infected with T7 phage
The gist of the method:
as §1

For test [12], the target named is T12, MEK1 (Homo sapiens, UniProt Q02750).
T12 construct: host or cells: E. coli derived from BL21, infected with T7 phage
The gist of the method:
as §1

Test [13] concerns the target T13, MLCK (Homo sapiens, UniProt Q32MK0).
T13 construct: host or cells: T7 phage in E. coli host derived from BL21
A digest of the protocol: as §1

In test [14] the target is T14, MST1R (Homo sapiens, UniProt Q04912).
T14 construct: host or cells: T7 phage in E. coli host derived from BL21
A digest of the protocol:
as §1

Test [15] has as its target T15, MST3 (Homo sapiens, UniProt Q9Y6E0).
T15 construct: host or cells: T7 phage in E. coli host derived from BL21
The gist of the method: as §1

In test [16] the target is T16, MYLK (Homo sapiens, UniProt Q15746).
T16 construct: host or cells: T7 phage in E. coli host derived from BL21
A digest of the protocol:
as §1

Test [17] addresses T17, PCTK2 (Homo sapiens, UniProt Q00537).
T17 construct: host or cells: E. coli host derived from the BL21 strain, infected with T7 phage
The gist of the method:
as §1

The target of test [18] is T18, PFTK1 (Homo sapiens, UniProt O94921).
T18 construct: host or cells: E. coli host derived from the BL21 strain, infected with T7 phage
A digest of the protocol:
as §1

The target of test [19] is T19, PIP5K1A (Homo sapiens, UniProt Q99755).
T19 construct: purchased Ambit Biosciences Corp (KinomeScan); host or cells: E. coli host derived from BL21, infected with T7 phage
T19 sequence (Q99755 whole entry): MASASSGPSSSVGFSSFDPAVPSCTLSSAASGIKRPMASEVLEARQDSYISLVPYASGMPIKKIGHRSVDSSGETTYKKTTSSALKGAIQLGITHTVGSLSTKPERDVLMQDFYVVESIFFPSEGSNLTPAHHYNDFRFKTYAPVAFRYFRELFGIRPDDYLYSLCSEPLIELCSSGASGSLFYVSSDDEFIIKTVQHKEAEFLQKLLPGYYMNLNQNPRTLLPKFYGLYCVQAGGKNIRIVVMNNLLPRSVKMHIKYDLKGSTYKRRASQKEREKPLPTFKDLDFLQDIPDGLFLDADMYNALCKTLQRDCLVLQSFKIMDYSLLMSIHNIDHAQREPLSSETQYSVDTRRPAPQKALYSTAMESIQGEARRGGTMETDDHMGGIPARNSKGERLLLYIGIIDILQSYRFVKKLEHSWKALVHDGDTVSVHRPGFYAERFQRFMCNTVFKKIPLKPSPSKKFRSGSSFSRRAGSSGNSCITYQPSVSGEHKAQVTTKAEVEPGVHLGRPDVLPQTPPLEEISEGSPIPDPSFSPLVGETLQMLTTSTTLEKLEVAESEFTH
A digest of the protocol: as §1

The target in test [20] is T20, PRKCE (Homo sapiens, UniProt Q02156).
T20 construct: purchased Ambit Biosciences Corp (KinomeScan); host or cells: E. coli host derived from BL21, infected with T7 phage
A digest of the protocol: as §1

Test [21] concerns the target T21, PRKD2 (Homo sapiens, UniProt Q9BZL6).
T21 construct: purchased Ambit Biosciences Corp (KinomeScan); host or cells: E. coli host derived from BL21, infected with T7 phage
The gist of the method: as §1

Test [22] addresses T22, PRKR (Homo sapiens, UniProt P19525).
T22 construct: purchased Ambit Biosciences Corp (KinomeScan); host or cells: E. coli host derived from BL21, infected with T7 phage
A digest of the protocol: as §1

Test [23] addresses T23, TNNI3K (Homo sapiens, UniProt Q59H18).
T23 construct: purchased Ambit Biosciences Corp (KinomeScan); host or cells: E. coli host derived from the BL21 strain (T7 phage lysate)
A digest of the protocol: as §1

T21 sequence (Q9BZL6 whole entry): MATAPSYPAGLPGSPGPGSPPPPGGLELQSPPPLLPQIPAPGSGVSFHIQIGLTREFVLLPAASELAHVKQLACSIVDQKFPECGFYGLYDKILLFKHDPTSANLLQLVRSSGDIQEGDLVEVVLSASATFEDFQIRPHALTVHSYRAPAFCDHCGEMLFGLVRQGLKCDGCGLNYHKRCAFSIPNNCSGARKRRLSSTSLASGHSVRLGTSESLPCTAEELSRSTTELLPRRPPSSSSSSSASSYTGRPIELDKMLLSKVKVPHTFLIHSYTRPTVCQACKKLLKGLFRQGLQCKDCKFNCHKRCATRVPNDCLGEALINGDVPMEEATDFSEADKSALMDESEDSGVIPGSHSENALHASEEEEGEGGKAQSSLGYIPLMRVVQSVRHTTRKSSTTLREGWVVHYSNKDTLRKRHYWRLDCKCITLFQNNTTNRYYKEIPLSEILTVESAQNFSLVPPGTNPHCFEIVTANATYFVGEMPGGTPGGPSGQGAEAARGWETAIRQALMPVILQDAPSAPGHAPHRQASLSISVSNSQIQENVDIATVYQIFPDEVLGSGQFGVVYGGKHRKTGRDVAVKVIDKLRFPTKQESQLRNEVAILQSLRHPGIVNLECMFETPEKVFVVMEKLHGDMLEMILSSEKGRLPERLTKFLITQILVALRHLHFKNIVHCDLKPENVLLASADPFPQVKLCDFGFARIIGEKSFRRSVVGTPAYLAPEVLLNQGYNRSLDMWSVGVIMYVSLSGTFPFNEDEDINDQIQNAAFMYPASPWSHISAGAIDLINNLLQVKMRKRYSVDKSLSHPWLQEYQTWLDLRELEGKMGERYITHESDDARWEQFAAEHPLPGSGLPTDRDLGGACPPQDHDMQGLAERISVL
T11 sequence (Q7KZI7 whole entry): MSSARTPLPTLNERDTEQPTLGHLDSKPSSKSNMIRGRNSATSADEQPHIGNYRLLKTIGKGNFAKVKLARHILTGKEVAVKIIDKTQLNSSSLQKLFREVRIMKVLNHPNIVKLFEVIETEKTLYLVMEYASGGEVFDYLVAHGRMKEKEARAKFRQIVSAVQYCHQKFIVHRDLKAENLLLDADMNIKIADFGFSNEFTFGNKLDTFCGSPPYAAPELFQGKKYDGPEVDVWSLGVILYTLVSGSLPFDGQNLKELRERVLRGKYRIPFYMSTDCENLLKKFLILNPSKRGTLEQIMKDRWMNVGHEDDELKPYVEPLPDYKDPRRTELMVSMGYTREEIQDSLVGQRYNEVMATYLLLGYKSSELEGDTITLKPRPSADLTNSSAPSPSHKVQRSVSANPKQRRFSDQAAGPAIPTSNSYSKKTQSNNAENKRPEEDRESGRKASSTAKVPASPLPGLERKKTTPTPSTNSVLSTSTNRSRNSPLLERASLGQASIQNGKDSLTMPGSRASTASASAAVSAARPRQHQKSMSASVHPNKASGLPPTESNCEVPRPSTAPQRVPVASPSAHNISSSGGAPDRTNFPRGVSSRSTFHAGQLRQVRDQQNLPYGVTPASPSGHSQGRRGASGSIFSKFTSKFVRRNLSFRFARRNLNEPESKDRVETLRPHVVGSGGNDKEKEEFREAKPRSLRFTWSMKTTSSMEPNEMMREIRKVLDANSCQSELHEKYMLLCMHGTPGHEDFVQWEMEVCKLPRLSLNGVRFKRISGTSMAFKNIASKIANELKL
T4 sequence (Q09013 whole entry): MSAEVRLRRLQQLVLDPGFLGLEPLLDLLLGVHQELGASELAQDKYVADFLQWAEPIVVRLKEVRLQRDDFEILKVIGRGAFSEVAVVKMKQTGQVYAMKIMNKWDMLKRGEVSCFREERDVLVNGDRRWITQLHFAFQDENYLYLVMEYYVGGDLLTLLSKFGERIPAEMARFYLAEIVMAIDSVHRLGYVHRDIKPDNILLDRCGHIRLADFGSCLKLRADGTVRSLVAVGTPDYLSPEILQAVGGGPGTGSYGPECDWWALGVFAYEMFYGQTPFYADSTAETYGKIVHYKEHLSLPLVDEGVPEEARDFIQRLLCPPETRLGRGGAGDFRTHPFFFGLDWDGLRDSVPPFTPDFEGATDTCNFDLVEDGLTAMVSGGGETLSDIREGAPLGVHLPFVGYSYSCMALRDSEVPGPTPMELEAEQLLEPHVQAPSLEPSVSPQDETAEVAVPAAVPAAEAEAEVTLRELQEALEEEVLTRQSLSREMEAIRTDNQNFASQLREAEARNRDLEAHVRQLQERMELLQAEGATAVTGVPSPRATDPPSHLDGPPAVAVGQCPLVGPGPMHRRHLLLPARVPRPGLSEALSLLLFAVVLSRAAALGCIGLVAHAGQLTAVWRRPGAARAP

Take `C#Cc1cccc(Nc2ncnc3cc(OC)c(OCCCN4CCOCC4)cc23)c1` [NRC-2694, N-(3-ethylnylphenyl)-7-methoxy-6-[3-(4-morpholinyl)propoxy]-4-quinazolinamine]: the “% Ctrl @ 10000 nM” value in test [1] is recorded as 66 % Ctrl; in test [2], 77 % Ctrl; in test [3], 67 % Ctrl; in test [4], 6.8 % Ctrl; in [5], 58 % Ctrl; in test [6], 10 % Ctrl. In addition, the “% Ctrl @ 10000 nM” value in [7] stood at 75 % Ctrl; in [8] it was 95 % Ctrl; in [9], 26 % Ctrl; in test [10], 47 % Ctrl; in test [11], 70 % Ctrl; in test [12] it was 50 % Ctrl. The “% Ctrl @ 10000 nM” value in test [13] amounted to 77 % Ctrl; in [14] it was 94 % Ctrl; in test [15] it was 42 % Ctrl; in test [16], 62 % Ctrl; in [17], 72 % Ctrl; in [18], 71 % Ctrl. Moreover, the “% Ctrl @ 10000 nM” value was found to be 61 % Ctrl in [19]; 65 % Ctrl in [20]; 0.4 % Ctrl in [21]; 51 % Ctrl in [22]; 7.6 % Ctrl in [23].
